Read-outs that look alike come from different tables or passages of the source.
How the values were obtained:
[1] = system: 5-LOX product formation (FLAP) in human monocytes; assay: 5-LOX product formation in intact human monocytes stimulated with Ca2+-ionophore A23187; format: cell-based; conditions: Monocyte, 5 h, read-out: IC50, formation of LTB4 and its isomers and of 5-H(p)ETE (5-LOX product formation)
Description: Peripheral blood (University Hospital Jena, Germany) was collected from fasted healthy adult donors that were informed about the aim of the study and gave written consent. The protocols for experiments with neutrophils or monocytes were approved by the ethical commission of the Friedrich-Schiller-University Jena (approval number 4292-12/14). All methods were performed in accordance with the relevant guidelines and regulations. Leukocyte concentrates were obtained by centrifugation (4000 × g, 20 min, 20 °C) of heparinized blood preparations. Neutrophils and monocytes were immediately isolated as described before. In brief, leukocyte concentrates were subjected to dextran sedimentation and centrifuged on lymphocyte separation medium (LSM 1077, PAA, Coelbe, Germany). For isolation of pelleted neutrophils, remaining erythrocytes were removed by hypotonic lysis, washed twice with ice-cold PBS and resuspended in medium to a cell density described for the respective experiments. […]
Human recombinant 5-LOX was expressed in E.coli BL21 transformed with pT3-5-LOX plasmid at 30 °C overnight as described before. […] After elution with methanol, samples were analyzed by RP-HPLC using a C-18 Radial-PAK column (Waters, Eschborn, Germany). […]

[2] = system: 5-LOX product formation (FLAP) in human neutrophils; assay: 5-LOX product formation in intact human neutrophils stimulated with Ca2+-ionophore A23187; format: cell-based; conditions: 5 h, read-out: IC50, formation of LTB4 and its isomers and of 5-H(p)ETE (5-LOX product formation); intact human neutrophils (PMNL), Ca2+-ionophore A23187, no AA supplementation
Description: After elution with methanol, samples were analyzed by RP-HPLC using a C-18 Radial-PAK column (Waters, Eschborn, Germany).

[3] = system: zymosan-induced peritonitis; assay: Zymosan-induced peritonitis mouse model; format: in vivo; conditions: for myeloperoxidase activity / myeloperoxidase activity, % of vehicle control / leukocyte recruitment: 4 h after zymosan; for vascular permeability, % of vehicle control: 30 min after zymosan
Description: The animal studies are reported in accordance with the ARRIVE guidelines for reporting animal research. Male CD-1 mice (33–39 g, 8–9 weeks, Charles River Laboratories, Calco, Italy) were housed in a controlled environment (21 ± 2 °C) and provided with standard rodent chow and water ad libitum. Mice received a standard diet containing 5.7% fat, 18.9% protein and 57.3% carbohydrate (Global Diet 2018, ENVIGO, Italy). The fatty acid composition was according to Matias et al.[67].
Prior to experiments, all mice were allowed to acclimate for 5 days and kept at 12 h light–dark schedule, in which experiments were performed during the light phase. Animal care was in compliance with Italian regulations on protection of animals used for experimental and other scientific purpose (Ministerial Decree 116/92) and with the European Economic Community regulations (Official Journal of E.C. L 358/1 12/18/1986). Animal studies were approved by the local ethical committee of the University of Naples Federico II on 27 February 2014 (approval number 2014/18760). […] Zymosan (Sigma, Milan, Italy) was prepared and injected i.p. as a final suspension (2 mg/mL) in 0.9% saline solution after boiling, centrifugation and sonication. Peritoneal lavage (3 mL of cold PBS) was performed after CO2-euthanasia at indicated time points, followed by 60 sec of gentle manual massage. Two mL of exudates were collected and infiltrated cells were determined using a Burker chamber and vital trypan blue staining. Pelleted samples (18,000 × g, 5 min, 4 °C) were frozen (−80 °C) and assayed for myeloperoxidase (MPO) activity (pellet) or LTC4 and LTB4 formation (supernatant), respectively.
MPO of neutrophils was examined as follows: pellets from exudates were resuspended in PBS (50 mM, pH 6) containing 0.5% hexadecyltrimethyl-ammonium bromide and sonicated, followed by 3 freeze-thawing cycles and a final sonication. Supernatants of centrifuged samples (18,000 × g, 30 min) were added to a 96-well plate and reactions were initiated by addition of PBS (50 mM, pH 6) containing o-dianisidine (0.167 mg/mL) and hydrogen peroxide (0.0005%). Absorbance was monitored in the kinetic mode (Biorad Imark microplate) and levels of MPO were determined using a calibration curve with human neutrophils as reference standard. MPO levels were expressed as units MPO per mouse. LTC4 and LTB4 formation within the supernatants were determined by EIA (Enzo Life Sciences International Inc., Lörrach, Germany) according to manufacturer’s protocol.
Vascular permeability was assessed according to a previous report. Briefly, 0.3 mL of 0.9% saline solution supplemented with Evans blue dye (40 mg/kg) was injected intravenously (i.v.) into the caudal vein followed by immediate peritonitis induction (using zymosan). After 30 min, peritoneal lavage exudates of CO2-euthanized were collected as described above. Absorbance of the centrifuged supernatants (3,000 × g, 5 min) was measured at 650 nm (Beckman Coulter DU730).

[4] = system: AA release (cPLA2) in neutrophils; assay: [3H]-labeled arachidonic acid release in neutrophils; format: cell-based, human; conditions: [3H]AA-pre-labelled neutrophils; diflapolin 1 µM, RSC-3388 10 µM
Description: Freshly isolated human neutrophils were resuspended in RPMI 1640 medium to a final cell density of 10^7 cells/mL and incubated with 0.5 µCi/mL of [^3H]-labeled arachidonic acid ([^3H]-AA), corresponding to a concentration of 5 nM of the fatty acid, for 2 hrs (37 °C, 5% CO2). Cells were washed twice to remove unincorporated [^3H]-AA and resuspended in PBS containing glucose (0.1%), fatty acid-free BSA (2 mg/mL) and CaCl2 (1 mM). […] The reaction was stopped on ice and cells were centrifuged at 1,200 rpm (10 min, 4 °C). The collected supernatants were combined with 2 mL of liquid scintillation counting solution (Rotiszint eco plus, Carl Roth, Karlsruhe, Germany) and assayed for radioactivity by scintillation counting (Micro Beta Trilux, Perkin Elmer, Waltham, MA).

[5] = mice, 1 mg/kg i.p. 30 min before zymosan

Compound	IC50 ([1]; intact human monocytes, Ca2+-ionophore A23187, no AA supplementation)	IC50 [2]	LTB4 peritoneal levels [3, 5]	LTC4 peritoneal levels [3, 5]	myeloperoxidase activity ([3]; mice, 1 mg/kg i.p.)	myeloperoxidase activity, % of vehicle control ([3]; mice, 1 mg/kg i.p.)	vascular permeability, % of vehicle control ([3]; mice, 3 mg/kg i.p.)	leukocyte recruitment ([3]; mice, MK886 i.p.)	IC50 ([1]; Homo sapiens)	vascular permeability, % of vehicle control ([3]; mice, 10 mg/kg i.p.)	myeloperoxidase activity ([3]; mice, 10 mg/kg i.p.)	myeloperoxidase activity, % of vehicle control ([3]; mice, 10 mg/kg i.p.)	LTC4 peritoneal levels ([3]; mice, 1, 3 and 10 mg/kg i.p. 30 min before zymosan, analysed 30 min after zymosan)	LTB4 peritoneal levels ([3]; mice, 1, 3 and 10 mg/kg i.p. 30 min before zymosan, analysed 4 h after zymosan)	leukocyte recruitment ([3]; mice, 1, 3 and 10 mg/kg i.p., dose-dependent)	release of AA upon A23187-stimulation [4]
CC(C)c1ccc2c(c1)c(SC(C)(C)C)c(CC(C)(C)C(=O)O)n2Cc1ccc(Cl)cc1 [MK886, 3-[1-(4-chlorobenzyl)-3-t-butyl-thio-5-isopropylindol-2-yl]-2,2 - dimethylpropanoic acid]	~3 nM	10 to 14 nM	comparable to the effect of MK886	comparable to the effect of MK886	0.72 ± 0.13 U/mL	58.5 ± 10.6 % of vehicle control	48.6 ± 3.2 % of vehicle control	block of leukocyte recruitment								
Cc1cc(OCc2nc3ccccc3s2)ccc1NC(=O)Nc1ccc(Cl)c(Cl)c1 [diflapolin, N-[4-(benzothiazol-2-ylmethoxy)-2-methylphenyl]-N′-(3,4-dichlorophenyl)urea]									30 nM	55.7 ± 14.4 % of vehicle control	0.65 ± 0.15 U/mL	52.8 ± 12.2 % of vehicle control	significant reduction	significant reduction	block of leukocyte recruitment	did not inhibit

Source: paper PMC5571211 (Scientific Reports, 2017)
